In publication PMC2929814 (Journal of medicinal chemistry, 2010):
pIC50: −log10 of the molar value. Read-outs that look alike come from different tables or passages of the source.

Tests used:
mouse spleen lymphocytes = experiment: Cytotoxicity against mouse spleen lymphocytes; conditions: estimated ±50%
[1] = tested on: P. falciparum D6 (CQS) strain; experiment: Activity against CQ-sensitive P. falciparum D6 in red cell culture; type: cell-based, Plasmodium falciparum
parasitemia = conditions: mouse model, oral dosing; cited from earlier work
[2] = tested on: P. falciparum D6 (CQS) strain; conditions: read-out: IC50 against the D6 strain; reported value; cited from earlier work

Row | SMILES | Cytotoxicity (mouse spleen lymphocytes) | further results
1 | CCN(CC)CCCC(C)Nc1ccnc2cc(Cl)ccc12 (stereo not shown) [CQ, chloroquine, reference compound] | 12 µM | pIC50 ([1]; Plasmodium falciparum, D6, read-out: IC50 D6 (CQS)): 8.15
2 | CN(CCCNc1ccnc2cc(Cl)ccc12)CCCN1c2ccccc2CCc2ccccc21 [Compound 1] | 0.7 µM | parasitemia cleared to (parasitemia): < 1%
3 | Clc1ccc2c(NCCCNCCCCN(Cc3ccccc3)Cc3ccccc3)ccnc2c1 [Compound 5] | 1.3 µM | –
4 | Clc1ccc2c(NCCN(CCN(Cc3ccccc3)Cc3ccccc3)CCN(Cc3ccccc3)Cc3ccccc3)ccnc2c1 [Compound 7] | 6.2 µM | –
5 | O=C(CNCCNc1ccnc2cc(Cl)ccc12)N(c1ccccc1)c1ccccc1 [Compound 10] | 62 µM | therapeutic index (cytotoxicity/efficacy) for D6 ([1]; cytotoxicity / IC50 D6): 12,000
6 | Clc1ccc2c(N3CCN(CCN(Cc4ccccc4)Cc4ccccc4)CC3)ccnc2c1 [Compound 11] | 61 µM | –
7 | Clc1ccc2c(N3CCN(CCCN4CCN(c5ccnc6cc(Cl)ccc56)CC4)CC3)ccnc2c1 [piperaquine, 1,3-bis-[4-(7-chloroquinolyl-4)-piperazinyl-1]-propane] | – | pIC50 [2]: > 8.00
